Data: patent US5952320A, “Macrocyclic inhibitors of matrix metalloproteinases and TNFα secretion” (Abbott Laboratories, priority 1997, dated 1999)
pIC50: −log10 of the molar value. Like-named read-outs stand apart in the source and are kept apart here.

Target: T1, Recombinant truncated stromelysin (human sequence) (Homo sapiens, UniProt P08254)
T1 construct: made in house; host or cells: E. coli
Assay: Determination of Stromelysin Inhibition (cleavage of thiopeptide ester substrate, DTNB, 405 nm)
Type: biochemical
Method: The efficacy of the compounds of this invention as matrix metalloproteinase inhibitors was determined by measuring the inhibition of stromelysin. The inhibition of stromelysin by the compounds of this invention was determined as follows: Recombinant truncated stromelysin (human sequence) produced in E. coli was prepared by expression and purification of the protein as described by Ye et al., Biochemistry, 1992, 31, 11231-11235. The enzyme was assayed by its cleavage of the thiopeptide ester substrate Ac-Pro-Leu-Gly-[2-mercapto-4-methyl-pentanoyl]-Leu-Gly-OEt described by Weingarten and Feder, Anal. Biochem., 1985, 147, 437-440 (1985), as a substrate of vertebrate collagenase. The reported conditions were modified to allow assays to be carried out in a microtiter plate. Upon hydrolysis of the thioester bond, the released thiol group reacts rapidly with 5,5'-dithio-bis(2-nitrobenzoic acid) (DTNB), producing a yellow color which is measured by a microtiter plate reader set at 405 nm. The rates of cleavage of the substrate by stromelysin in the presence or absence of inhibitors are measured in a 30 min assay at ambient temperature. Solutions of the compounds in DMSO are prepared, and these are diluted at various concentrations into the assay buffer (50 mM MES/NaOH pH 6.5 with 10 mM CaCl2 and 0.2% Pluronic F-68), which is also used for dilution of the enzyme and substrate. The potency of the compounds [IC50 ] are calculated from the inhibition/inhibitor concentration data.

[1] = Inhibitory potencies against stromelysin, 30 min assay at ambient temperature, pH 6.5, read-out: IC50

T1 sequence (P08254 100-272 limits assumed): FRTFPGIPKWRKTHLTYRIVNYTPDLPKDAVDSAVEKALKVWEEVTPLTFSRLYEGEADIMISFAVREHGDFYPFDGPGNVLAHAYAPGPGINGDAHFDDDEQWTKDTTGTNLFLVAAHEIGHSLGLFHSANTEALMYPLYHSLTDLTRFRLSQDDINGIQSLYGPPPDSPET

pIC50 [1]	SMILES	pIC50
8.14	CC(C)C[C@H]1C(=O)N[C@H](C(=O)NCCc2ccccc2)Cc2ccc(cc2)OCCCC[C@@H]1C(=O)NO [Example 2]	
	CC(C)C[C@H]1C(=O)N[C@H](C(=O)O)Cc2ccc(cc2)OCCCCC[C@@H]1C(=O)NO [Example 21]	7.41
7.64	CNC(=O)[C@@H]1Cc2ccc(cc2)NC(=O)CCCC[C@H](C(=O)NO)[C@@H](CC(C)C)C(=O)N1 [Example 16]	
6.24	CNC(=O)[C@@H]1Cc2ccc(cc2)OCCCC[C@@H](C(=O)NO)[C@@H](CC(C)C)C(=O)N1 [8 syn]	
8.16	CC(C)C[C@H]1C(=O)N[C@H](C(=O)NCCc2ccc(S(N)(=O)=O)cc2)Cc2ccc(cc2)OCCCC[C@@H]1C(=O)NO [Example 1]	
9.25	Cc1ccc(CCC[C@H]2C(=O)N[C@H](C(=O)NCCN(C)C)Cc3ccc(cc3)OCCCC[C@@H]2C(=O)NO)cc1 [Example 38]	
8.05	CC(C)C[C@H]1C(=O)N[C@H](C(=O)N2CCC[C@H]2C(=O)OCc2ccccc2)Cc2ccc(cc2)OCCCCC[C@@H]1C(=O)NO [Example 24]	
7.70	CNC(=O)[C@@H]1Cc2ccc(cc2)OCCCCC[C@H](C(=O)O)[C@@H](CCCc2ccc(C)cc2)C(=O)N1 [Example 30]	
8.14	CC(C)C[C@H]1C(=O)N[C@H](C(=O)c2ccc[nH]2)Cc2ccc(cc2)OCCCCC[C@@H]1C(=O)NO [Example 15]	
8.82	CCCc1ccc(CC[C@H]2C(=O)N[C@H](C(=O)NC)Cc3ccc(cc3)OCCCC[C@@H]2C(=O)NO)cc1 [Example 34]	
	Cc1ccc(CCC[C@H]2C(=O)N[C@H](C(=O)O)Cc3ccc(cc3)OCCCC[C@@H]2C(=O)NO)cc1 [Example 32]	8.17
8.62	CNC(=O)[C@@H]1Cc2ccc(cc2)/C=C\CCCCC(C(=O)NO)[C@@H](CC(C)C)C(=O)N1 (stereo partly shown) [Example 13]	
7.36	CC(C)C[C@H]1C(=O)N[C@H](C(=O)N2CCC[C@H]2C(=O)O)Cc2ccc(cc2)OCCCCC[C@@H]1C(=O)NO [Example 25]	
8.59	CC(C)C[C@H]1C(=O)N[C@H](C(=O)Nc2ccccn2)Cc2ccc(cc2)OCCCC[C@@H]1C(=O)NO [Example 6]	
7.59	CNC(=O)[C@H]1NC(=O)[C@H](CC(C)C)[C@@H](C(=O)NO)CCCCCOc2ccc1cc2 [Example 41]	
7.92	CNC(=O)[C@@H]1Cc2ccc(cc2)OCCCCCC[C@H](C(=O)NO)[C@@H](CC(C)C)C(=O)N1 [Example 12]	

pIC50 [1]	SMILES	pIC50
8.44	CC(C)C[C@H]1C(=O)N[C@H](c2nc3ccccc3[nH]2)Cc2ccc(cc2)OCCCC[C@@H]1C(=O)NO [Example 7]	
8.03	CC(C)C[C@H]1C(=O)N[C@H](C(=O)N2CCOCC2)Cc2ccc(cc2)OCCCC[C@@H]1C(=O)NO [Example 5]	
	COC(=O)[C@@H]1Cc2ccc(cc2)OCCCCC[C@H](C(=O)NO)[C@@H](CC(C)C)C(=O)N1 [Example 26]	7.57
8.11	CNC(=O)[C@@H]1Cc2ccc(cc2)OCCC[C@H](C(=O)NO)[C@@H](CC(C)C)C(=O)N1 [Example 10]	
7.70	CNC(=O)[C@@H]1Cc2ccc(cc2)NCCCCC[C@H](C(=O)NO)[C@@H](CC(C)C)C(=O)N1 [Example 19]	
8.57	CC(C)C[C@H]1C(=O)N[C@H](C(=O)c2ccccc2)Cc2ccc(cc2)OCCCCC[C@@H]1C(=O)NO [Example 14]	
5.68	CNC(=O)[C@@H]1Cc2ccc(cc2)OCCC[C@H](C(=O)O)[C@@H](CC(C)C)C(=O)N1 [Example 9]	
9.21	CNC(=O)[C@@H]1Cc2ccc(cc2)N(C(=O)OCc2ccccc2)CCCCC[C@H](C(=O)NO)[C@@H](CC(C)C)C(=O)N1 [Example 18]	
8.21	CNC(=O)[C@@H]1Cc2ccc(cc2)OCCCCC[C@H](C(=O)NO)[C@@H](CC(C)C)C(=O)N1 [Example 11]	
8.09	CC(C)C[C@H]1C(=O)N[C@H](c2nc(-c3ccccc3)c[nH]2)Cc2ccc(cc2)OCCCCC[C@@H]1C(=O)NO [Example 23]	
8.41	CNC(=O)[C@@H]1Cc2ccc(cc2)OCCCC[C@H](C(=O)NO)[C@@H](CC(C)C)C(=O)N1 [8 anti]	
8.62	CC(C)C[C@H]1C(=O)N[C@H](C(=O)Nc2ccccc2)Cc2ccc(cc2)OCCCC[C@@H]1C(=O)NO [Example 4]	
8.24	CC(C)C[C@H]1C(=O)N[C@H](C(=O)NC2CC2)Cc2ccc(cc2)OCCCC[C@@H]1C(=O)NO [Example 3]	
7.04	CC(C)C[C@H]1C(=O)N[C@H](C(=O)OCc2ccccc2)Cc2ccc(cc2)OCCCCC[C@@H]1C(=O)NO [Example 20]	
8.54	CNC(=O)[C@@H]1Cc2ccc(cc2)OCCCCC[C@H](C(=O)NO)[C@@H](CCCc2ccc(C)cc2)C(=O)N1 [Example 31]	
